Patent US5232923A, “Catechol derivatives and pharmaceutical preparations containing same” (Mitsui Toatsu Chemicals, Incorporated, priority 1988, dated 1993)
Where two headings read alike, the source gives them in different places.

Tests used:
[1] = tested on: production and secretion of NGF in mouse brain astroglial cells; assay: Promoting activity for the production and secretion of NGF in mouse brain astroglial cells (ELISA of medium after 24 h); assay type: cell-based; conditions: for fold induction at 400 µM / fold induction at 200 µM: Mus musculus, 24 h; for NGF Concentration / NGF Astroglial Cell Concentration: 24 hours; for NGF Astroglial Cell Concentration: control 31.8
Method: Promoting activity for the production and secretion of NGF in mouse brain astroglial cells
The experiment was performed by inducing astroglial cells from the mouse forebrain to a culture system according to the procedures of S. Furukawa et al. which is described in Biochem. Biophys. Res. Commun., 136, 57-63 (1986).
Forebrains of 8-days old mice were dissected out and cut into small pieces. The pieces were washed with calcium- and magnesium-free phosphate-bufferedsaline (hereinafter abbreviated as PBS), treated with 0.25% trypsin containing PBS at 37° C. for 30 minutes and triturated with a Pasteur pipet to give a suspension. Cells and cell clumps were recovered by centrifugation at 200 xg for 5 minutes. They were cultured in Dulbecco modified Eagle's medium (a product of Gibco Co. hereinafter abbreviated as DMEM) containing 10% fetal calf serum, 50 μ units/ml of penicillin, and 50 μg/ml of streptomycin, for 10 to 14 days with medium changes every 3 days. After completing confluency, the cells were dissociated by trypsin treatment and recultured in new culture flasks. This procedure was repeated further twice and more. The culture became a uniform cell cluster. The cell cluster for use in this invention can be stained not less than 97% in accordance with the PAP staining method (peroxidase/[…] staining method) using anti-human glial fibrillar acidic protein (GFAP) rabbit antiserum. The cells will hereinafter be referred to as astroglial cells.
Astroglial cells were innoculated in 24-well plates having a well surface area of 2.1 cm^2 (a product of Falcon Co.) at a cell density of about 3×10^4 cells/well and cultured for 3 days in DMEM medium supplemented with 10% of fetal calf serum. After completing confluency about ([…]), the medium was changed to DMEM medium (0.5 ml/well) supplemented with 0.5% of bovine serum albumin (fraction V) and cultured for 3 days. The culture was further continued with medium changes every 3 days. After cells were practically synchronized in the quiscent stage, the medium was changed to 0.5 ml of the same medium and containing a prescribed concentration of test sample as illustrated in the Tables. NGF in the medium after cultivating for 24 hours was determined by the ELISA as mentioned above. Data are expressed as fold increase in NGF content over that in the absence of the test sample. The lower detection limit of the ELISA is 0.25 pg/ml and the NGF content of control medium was normally 1-10 pg/0.5 ml/well. Data are presented as the mean of four determinations. The results are illustrated in Tables 1-5.

[2] = tested on: production and secretion of NGF in mouse L-M cells; assay: Promoting activity for the production and secretion of NGF in mouse L-M cells (ELISA of medium after 24 h); assay type: cell-based; conditions: L-M cells; for fold induction at 200 µM / fold induction at 400 µM: Mus musculus, 24 h, fold increase over control (1.00); for fold induction at 200 µM / NGF Concentration: Table 2, sample concentration 0.2 mM; for fold induction at 200 µM: read-out: NGF Increase Ratio; for NGF Concentration / NGF L-M Cell Concentration: 24 hours; for NGF Concentration: mean of four determinations, control 0.34; for fold induction at 400 µM / NGF L-M Cell Concentration: Table 5, 0.4 mM; for fold induction at 400 µM: read-out: NGF L-M Cell Increase Ratio; for NGF L-M Cell Concentration: control 0.87
Method: Promoting activity for the production and secretion of NGF in mouse L-M cells
The medium was cultured for 3 days at a temperature of 37° C. […] The sample of the derivative tested is contained in the medium at a prescribed concentration as illustrated in the Tables. […] Data are expressed as fold increase in NGF content of the medium over that cultivated in the absence of the derivative to be tested. […] Data are presented as the mean of four determinations. The results are illustrated in Tables 1-5.

[3] = Table 4, sample concentration 0.4 mM, fold increase over control, read-out: NGF Increase Ratio
[4] = Table 4, sample concentration 0.4 mM
[5] = Table 4, sample concentration 0.2 mM, fold increase over control, read-out: NGF Increase Ratio
[6] = Table 4, sample concentration 0.2 mM
[7] = Table 5, 0.4 mM, fold increase over control (1.00), read-out: NGF Astroglial Cell Increase Ratio

| SMILES | fold induction at 400 µM [1, 3] | NGF Concentration [1, 4] [ng/well] | fold induction at 200 µM [2] | NGF Concentration [2] [ng/well] | fold induction at 200 µM [1, 5] | NGF Concentration [1, 6] [ng/well] | fold induction at 400 µM [1, 7] | NGF Astroglial Cell Concentration ([1]; Table 5, 0.4 mM) [ng/well] | fold induction at 400 µM [2] | NGF L-M Cell Concentration [2] [ng/well] |
| --- | --- | --- | --- | --- | --- | --- | --- | --- | --- | --- |
| CCOC(=O)CCc1ccc(OC(C)=O)c(OC(C)=O)c1 [Compound 47, Ethyl 3,4-diacetoxyphenylpropionate] | 5.11 | 220.8 | 6.29 | 2.14 |  |  |  |  |  |  |
| CCCCOC(=O)CCc1ccc(OC(C)=O)c(OC(C)=O)c1 [Compound 49] | 5.18 | 223.7 | 6.29 | 2.14 |  |  |  |  |  |  |
| CCOC(=O)Cc1ccc(OC(C)=O)c(OC(C)=O)c1 [Compound 51] | 4.5 | 194.6 | 5.82 | 1.98 |  |  |  |  |  |  |
| CCOC(=O)CCCc1ccc(OC(C)=O)c(OC(C)=O)c1 [Compound 55] | 4.39 | 189.7 | 5.82 | 1.98 |  |  |  |  |  |  |
| NC(=O)CCc1ccc(O)c(O)c1 [Compound 58] |  |  | 5.53 | 1.88 | 5.32 | 230.0 |  |  |  |  |
| CCNC(=O)CCc1ccc(O)c(O)c1 [Compound 60] |  |  | 5.41 | 1.84 | 6.95 | 300.4 |  |  |  |  |
| CCNC(=O)Cc1ccc(O)c(O)c1 [Compound 64] |  |  | 5.32 | 1.81 | 4.65 | 200.8 |  |  |  |  |
| CCNC(=O)CCCc1ccc(O)c(O)c1 [Compound 69] |  |  | 5.53 | 1.88 | 4.49 | 194.1 |  |  |  |  |
| CN(C)C(=O)CCc1ccc(O)c(O)c1 [Compound 72] |  |  | 5.91 | 1.94 | 6.5 | 280.6 |  |  |  |  |
| CC(=O)Oc1ccc(CCC(N)=O)cc1OC(C)=O [Compound 73] | 7.65 | 330.6 | 5.68 | 2.01 |  |  |  |  |  |  |
| CCNC(=O)CCc1ccc(OC(C)=O)c(OC(C)=O)c1 [Compound 74] | 6.53 | 282.2 | 5.85 | 1.93 |  |  |  |  |  |  |
| CCNC(=O)Cc1ccc(OC(C)=O)c(OC(C)=O)c1 [Compound 76] | 4.84 | 209.1 | 5.47 | 1.88 |  |  |  |  |  |  |
| CCNC(=O)CCCc1ccc(OC(C)=O)c(OC(C)=O)c1 [Compound 79] | 4.57 | 197.3 | 5.35 | 1.82 |  |  |  |  |  |  |
| CC(=O)Oc1ccc(CCC(=O)N(C)C)cc1OC(C)=O [Compound 81] | 6.33 | 273.5 | 5.76 | 1.96 |  |  |  |  |  |  |
| CCCCNC(=O)CCc1ccc(O)c(O)c1 [Compound 84, N-n-Butyl-3,4-dihydroxyphenylpropionamide] |  |  |  |  |  |  | 33.1 | 539.5 | 6.2 | 5.39 |
| CCCCNC(=O)CCc1ccc(OC(C)=O)c(OC(C)=O)c1 [Compound 85, N-n-Butyl-3,4-diacetoxyphenylpropionamide] |  |  |  |  |  |  | 33.6 | 547.7 | 6.8 | 5.92 |
